Measurements published in US20210070748A1, “INHIBITORS OF BRUTONS TYROSINE KINASE” (Pharmacyclics LLC, priority 2015, published 2021).

Columns and labels:
[1] = biological target: SRC (Homo sapiens, UniProt P12931); experiment: Inhibition of a panel of kinases, in vitro HotSpot kinase assay: SRC; type: biochemical; conditions: D-compounds panel data; 1 μM ATP
Method: The degree of inhibition of a panel of kinases is determined using the in vitro HotSpot kinase assay (purified enzymes, ^33P-ATP, an appropriate substrate and 1 μM ATP).

[2] = biological target: T1, JAK3 (Homo sapiens, UniProt P52333); experiment: Inhibition of a panel of kinases, in vitro HotSpot kinase assay: JAK3; type: biochemical; conditions: D-compounds panel data; 1 μM ATP; read-out: IC50 JAK3
T1 sequence (P52333 1-1124): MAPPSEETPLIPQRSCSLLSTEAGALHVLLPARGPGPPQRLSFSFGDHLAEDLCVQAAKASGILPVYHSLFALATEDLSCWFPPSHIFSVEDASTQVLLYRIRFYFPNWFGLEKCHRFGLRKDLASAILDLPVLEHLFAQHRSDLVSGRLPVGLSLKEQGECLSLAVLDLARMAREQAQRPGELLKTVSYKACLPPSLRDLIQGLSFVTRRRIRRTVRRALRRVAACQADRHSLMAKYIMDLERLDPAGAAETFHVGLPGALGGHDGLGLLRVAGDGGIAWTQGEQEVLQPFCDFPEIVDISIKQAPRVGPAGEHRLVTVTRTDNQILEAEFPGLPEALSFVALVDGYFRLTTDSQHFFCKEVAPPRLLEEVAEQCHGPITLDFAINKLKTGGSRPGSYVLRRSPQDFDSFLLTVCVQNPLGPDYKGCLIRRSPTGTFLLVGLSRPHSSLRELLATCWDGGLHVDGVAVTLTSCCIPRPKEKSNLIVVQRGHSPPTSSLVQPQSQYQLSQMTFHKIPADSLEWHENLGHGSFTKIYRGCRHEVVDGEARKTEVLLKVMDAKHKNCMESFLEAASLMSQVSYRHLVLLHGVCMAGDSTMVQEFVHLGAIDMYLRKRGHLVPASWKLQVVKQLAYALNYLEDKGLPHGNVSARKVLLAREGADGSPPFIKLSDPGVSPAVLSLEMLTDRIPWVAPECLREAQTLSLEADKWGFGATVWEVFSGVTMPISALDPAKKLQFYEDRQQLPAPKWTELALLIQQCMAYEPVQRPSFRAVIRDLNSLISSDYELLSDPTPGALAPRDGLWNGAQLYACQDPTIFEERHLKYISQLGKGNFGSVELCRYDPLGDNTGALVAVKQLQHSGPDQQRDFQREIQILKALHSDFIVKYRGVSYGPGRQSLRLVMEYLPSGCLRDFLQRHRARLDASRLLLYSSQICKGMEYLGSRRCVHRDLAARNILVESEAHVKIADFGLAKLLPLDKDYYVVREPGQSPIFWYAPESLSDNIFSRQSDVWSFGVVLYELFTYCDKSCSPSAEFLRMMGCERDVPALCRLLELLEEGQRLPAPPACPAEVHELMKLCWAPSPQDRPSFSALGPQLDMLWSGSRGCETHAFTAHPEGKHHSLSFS

SRC, sequence (P12931 whole entry): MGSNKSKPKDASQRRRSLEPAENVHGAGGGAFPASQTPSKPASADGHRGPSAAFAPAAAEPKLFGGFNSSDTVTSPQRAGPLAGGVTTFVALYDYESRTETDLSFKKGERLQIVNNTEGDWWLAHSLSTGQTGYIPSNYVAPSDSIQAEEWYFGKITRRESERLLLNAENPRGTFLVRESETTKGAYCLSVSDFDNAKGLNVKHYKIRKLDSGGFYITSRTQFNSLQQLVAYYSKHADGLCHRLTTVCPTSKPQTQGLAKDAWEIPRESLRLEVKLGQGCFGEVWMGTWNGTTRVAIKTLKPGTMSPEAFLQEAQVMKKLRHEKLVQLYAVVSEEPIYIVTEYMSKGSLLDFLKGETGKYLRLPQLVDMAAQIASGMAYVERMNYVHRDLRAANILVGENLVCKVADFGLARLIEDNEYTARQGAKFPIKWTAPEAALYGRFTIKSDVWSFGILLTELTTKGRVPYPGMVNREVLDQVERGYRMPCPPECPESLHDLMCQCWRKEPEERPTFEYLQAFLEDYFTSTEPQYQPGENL

Row | IC50 [1] [nM] | IC50 [2] [nM] | SMILES
1 | 1000 to 10000 | > 10000 | Cn1cc(Nc2nc(N3CC[C@@H](O)[C@H](NC(=O)c4ccc(C5CC5)cc4)C3)cnc2C(N)=O)cn1 (racemic) [Example D-26, (racemic)-trans-5-[3-(4-cyclopropylbenzamido)-4-hydroxypiperidin-1-yl]-3-[(1-methyl-1H-pyrazol-4-yl)amino]pyrazine-2-carboxamide]
2 | 100 to 1000 | 100 to 1000 | Cn1cc(Nc2nc(N3C[C@H](CO)C[C@H](NC(=O)c4ccc(C5CC5)cc4)C3)cnc2C(N)=O)cn1 (racemic) [Example D-43, (racemic)-cis-5-[3-(4-cyclopropylbenzamido)-5-(hydroxymethyl)piperidin-1-yl]-3-[(1-methyl-1H-pyrazol-4-yl)amino]pyrazine-2-carboxamide]
3 | 100 to 1000 | 1000 to 10000 | CN(C)C(=O)N1CC[C@@H]2[C@H]1CCCN2c1cnc(C(N)=O)c(Nc2cnn(C)c2)n1 (racemic) [Example D-50, (racemic)-cis-5-[1-(dimethylcarbamoyl)-octahydro-1H-pyrrolo[3,2-b]pyridin-4-yl]-3-[(1-methyl-1H-pyrazol-4-yl)amino]pyrazine-2-carboxamide]
4 | 100 to 1000 | 1000 to 10000 | Cn1cc(Nc2nc(N3CCC[C@@H]4[C@H]3CCN4C(=O)c3ccccc3)cnc2C(N)=O)cn1 (racemic) [Example D-54, (racemic)-cis-5-{1-benzoyl-octahydro-1H-pyrrolo[3,2-b]pyridin-4-yl}-3-[(1-methyl-1H-pyrazol-4-yl)amino]pyrazine-2-carboxamide]
5 | > 10000 | > 10000 | CN(C)C(=O)N[C@H]1CCCN(c2cnc(C(N)=O)c(Nc3ccc4ncccc4c3)n2)[C@@H]1CO (racemic) [Example D-64, trans 5-[3-[(dimethylcarbamoyl)amino]-2-(hydroxymethyl)piperidin-1-yl]-3-[(quinolin-6-yl)amino]pyrazine-2-carboxamide]
6 | 1000 to 10000 | > 10000 | CN(C)C(=O)N[C@H]1CCCN(c2cnc(C(N)=O)c(Nc3ccc4ncccc4c3)n2)[C@H]1CO (racemic) [Example D-65, cis 5-[3-[(dimethylcarbamoyl)amino]-2-(hydroxymethyl)piperidin-1-yl]-3-[(quinolin-6-yl)amino]pyrazine-2-carboxamide]
7 | 1000 to 10000 | > 10000 | Cn1cc(Nc2nc(N3CCC(NC(=O)c4ccc(C5CC5)cc4)C(O)C3)cnc2C(N)=O)cn1 (single isomer, unassigned) [Example D-28, Trans-5-[4-(4-cyclopropylbenzamido)-3-hydroxypiperidin-1-yl]-3-[(1-methyl-1H-pyrazol-4-yl)amino]pyrazine-2-carboxamide]
8 | 1000 to 10000 | > 10000 | Cn1cc(Nc2nc(N3CCC(NC(=O)c4ccc(C5CC5)cc4)C(O)C3)cnc2C(N)=O)cn1 (single isomer, unassigned) [Example D-29, Trans-5-[4-(4-cyclopropylbenzamido)-3-hydroxypiperidin-1-yl]-3-[(1-methyl-1H-pyrazol-4-yl)amino]pyrazine-2-carboxamide]
9 | 100 to 1000 | 1000 to 10000 | C[C@@H]1[C@H](NC(=O)c2ccc(C3CC3)cc2F)CCCN1c1cnc(C(N)=O)c(Nc2cnn(C)c2)n1 [Example D-1, 5-[(2R,3R)-3-(4-cyclopropyl-2-fluorobenzamido)-2-methylpiperidin-1-yl]-3-[(1-methyl-1H-pyrazol-4-yl)amino]pyrazine-2-carboxamide]
10 | 1000 to 10000 | 1000 to 10000 | Cc1cc(Nc2nc(N3CCC[C@@H](NC(=O)c4ccc(C5CC5)cc4F)C3)cnc2C(N)=O)on1 [Example D-2, 5-[(3R)-3-(4-cyclopropyl-2-fluorobenzamido)piperidin-1-yl]-3-[(3-methyl-1,2-oxazol-5-yl)amino]pyrazine-2-carboxamide]
11 | > 10000 | > 10000 | NC(=O)c1ncc(N2CCC[C@@H](NC(=O)c3ccc(C4CC4)cc3F)C2)nc1Nc1cc(-c2ccccc2)ns1 [Example D-3, 5-[(3R)-3-(4-cyclopropyl-2-fluorobenzamido)piperidin-1-yl]-3-[(3-phenyl-1,2-thiazol-5-yl)amino]pyrazine-2-carboxamide]
12 | > 10000 | 1000 to 10000 | Cc1ncc(Nc2nc(N3CCC[C@@H](NC(=O)c4ccc(C5CC5)cc4F)C3)cnc2C(N)=O)s1 [Example D-4, 5-[(3R)-3-(4-cyclopropyl-2-fluorobenzamido)piperidin-1-yl]-3-[(2-methyl-1,3-thiazol-5-yl)amino]pyrazine-2-carboxamide]
13 | 10 to 100 | 100 to 1000 | C[C@@H]1[C@H](N2Cc3cc(Br)ccc3C2=O)CCCN1c1cnc(C(N)=O)c(Nc2cnn(C)c2)n1 [Example D-27, 5-[(2R,3R)-3-(5-bromo-1-oxo-2,3-dihydro-1H-isoindol-2-yl)-2-methylpiperidin-1-yl]-3-[(1-methyl-1H-pyrazol-4-yl)amino]pyrazine-2-carboxamide]
14 | 100 to 1000 | > 10000 | C[C@H]1C[C@@H](NC(=O)c2ccc(C3CC3)cc2)CN(c2cnc(C(N)=O)c(Nc3cnn(C)c3)n2)C1 [Example D-30, 5-[(3R,5S)-3-(4-cyclopropylbenzamido)-5-methylpiperidin-1-yl]-3-[(1-methyl-1H-pyrazol-4-yl)amino]pyrazine-2-carboxamide]
15 | 100 to 1000 | 1000 to 10000 | C[C@@H]1C[C@@H](NC(=O)c2ccc(C3CC3)cc2)CN(c2cnc(C(N)=O)c(Nc3cnn(C)c3)n2)C1 [Example D-31, 5-[(3R,5R)-3-(4-cyclopropylbenzamido)-5-methylpiperidin-1-yl]-3-[(1-methyl-1H-pyrazol-4-yl)amino]pyrazine-2-carboxamide]
16 | > 10000 | > 10000 | C[C@@H]1C[C@H](NC(=O)c2ccc(C3CC3)cc2)CN(c2cnc(C(N)=O)c(Nc3cnn(C)c3)n2)C1 [Example D-32, 5-[(3S,5R)-3-(4-cyclopropylbenzamido)-5-methylpiperidin-1-yl]-3-[(1-methyl-1H-pyrazol-4-yl)amino]pyrazine-2-carboxamide]
17 | 10 to 100 | 1000 to 10000 | C[C@@H]1[C@H](NC(=O)N(C)C)CCCN1c1cnc(C(N)=O)c(Nc2ccc(OC3CCN(C)CC3)cc2)n1 [Example D-33, 5-[(2R,3R)-3-[(dimethylcarbamoyl)amino]-2-methylpiperidin-1-yl]-3-({4-[(1-methylpiperidin-4-yl)oxy]phenyl}amino)pyrazine-2-carboxamide]
18 | > 10000 | > 10000 | C[C@H]1C[C@H](NC(=O)c2ccc(C3CC3)cc2)CN(c2cnc(C(N)=O)c(Nc3cnn(C)c3)n2)C1 [Example D-34, 5-[(3S,5S)-3-(4-cyclopropylbenzamido)-5-methylpiperidin-1-yl]-3-[(1-methyl-1H-pyrazol-4-yl)amino]pyrazine-2-carboxamide]
19 | 10 to 100 | 100 to 1000 | CC(C)n1ccc(C(=O)N[C@@H]2CCCN(c3cnc(C(N)=O)c(Nc4cnn(C)c4)n3)[C@@H]2C)cc1=O [Example D-35, 3-[(1-methyl-1H-pyrazol-4-yl)amino]-5-[(2R,3R)-2-methyl-3-[2-oxo-1-(propan-2-yl)-1,2-dihydropyridine-4-amido]piperidin-1-yl]pyrazine-2-carboxamide]
